# Data reported in patent US3956274A, “New compound 6'-deoxy-'-substituted or unsubstituted amino-lividomycins and the production thereof” (Zaidan Hojin Biseibutsu Kagaku Kenkyu Kai, priority 1973, dated 1976).
# Columns and labels:
# [1] = test system: strains producing the phosphotransferase; details: in words; cited from earlier work
# [2] = test system: Escherichia coli K-12 ML 1629; experiment: MIC, standard serial dilution method; assay type: cell-based; details: E. coli K-12 ML 1629, drug-resistant strain of patient-origin, nutrient agar, 37°C, 18 hours
# Procedure: (§1) The minimum inhibitory concentrations (mcg/ml) of 6'-amino-6'-deoxylividomycin B, 6'-deoxy-6'-methylaminolividomycin B and 6'-deoxy-6'-(2-hydroxyethylamino) lividomycin B against various microorganisms were determined according to a standard serial dilution method using nutrient agar incubation medium at 37°C, the estimation being effected after 18 hours incubation except for Mycobacterium smegmalis ATCC 607, in which the estimation being effected after 48 hours incubation. The minimum inhibitory concentrations (mcg/ml) of neomycin and lividomycin B were also determined in the same manner they also for comparison.
# (§2) In the above table, the mark * denotes the strain is a drug-resistant
# (§3) strain of patient-origin.
# [3] = test system: Pseudomonas aeruginosa GN 315; experiment: MIC, standard serial dilution method; assay type: cell-based; details: P. aeruginosa GN 315, drug-resistant strain of patient-origin, nutrient agar, 37°C, 18 hours
# Procedure: as §1, §2, §3
# [4] = test system: Escherichia coli K-12 JR 66/W 677; experiment: MIC, standard serial dilution method; assay type: cell-based
# Procedure: as §1, §2, §3
# [5] = test system: Escherichia coli K-12 LA 290 R 55; experiment: MIC, standard serial dilution method; assay type: cell-based
# Procedure: as §1, §2, §3
# [6] = test system: Escherichia coli K-12 W 677; experiment: MIC, standard serial dilution method; assay type: cell-based
# Procedure: as §1
# [7] = test system: Staphylococcus aureus FDA 209 P; experiment: MIC, standard serial dilution method; assay type: cell-based; details: S. aureus FDA 209 P, nutrient agar, 37°C, 18 hours
# Procedure: as §1
# [8] = test system: Escherichia coli K-12 ML 1410; experiment: MIC, standard serial dilution method; assay type: cell-based
# Procedure: as §1
# [9] = test system: Escherichia coli K-12 LA 290 R 56; experiment: MIC, standard serial dilution method; assay type: cell-based
# Procedure: as §1
# [10] = test system: Escherichia coli K-12 R-5; experiment: MIC, standard serial dilution method; assay type: cell-based; details: E. coli K-12 R-5, nutrient agar, 37°C, 18 hours
# Procedure: as §1
# [11] = test system: Escherichia coli K-12 J 5 R 11-2; experiment: MIC, standard serial dilution method; assay type: cell-based; details: E. coli K-12 J 5 R 11-2, nutrient agar, 37°C, 18 hours
# Procedure: as §1
# [12] = test system: Escherichia coli K-12; experiment: MIC, standard serial dilution method; assay type: cell-based; details: E. coli K-12, nutrient agar, 37°C, 18 hours
# Procedure: as §1
# [13] = test system: Proteus rettgeri GN 466; experiment: MIC, standard serial dilution method; assay type: cell-based
# Procedure: as §1
# [14] = test system: Pseudomonas aeruginosa 99; experiment: MIC, standard serial dilution method; assay type: cell-based; details: P. aeruginosa 99, nutrient agar, 37°C, 18 hours
# Procedure: as §1
# [15] = test system: Escherichia coli NIHJ; experiment: MIC, standard serial dilution method; assay type: cell-based
# Procedure: as §1
# [16] = test system: Pseudomonas aeruginosa A 3; experiment: MIC, standard serial dilution method; assay type: cell-based
# Procedure: as §1
# [17] = test system: Proteus rettgeri GN 311; experiment: MIC, standard serial dilution method; assay type: cell-based; details: 37°C, 18 hours
# Procedure: as §1
# [18] = test system: Sarcina lutea PCI 1001; experiment: MIC, standard serial dilution method; assay type: cell-based; details: 37°C, 18 hours
# Procedure: as §1
# [19] = test system: Escherichia coli K-12 ML 1630; experiment: MIC, standard serial dilution method; assay type: cell-based; details: E. coli K-12 ML 1630, nutrient agar, 37°C, 18 hours
# Procedure: as §1
# [20] = test system: Pseudomonas aeruginosa No.12; experiment: MIC, standard serial dilution method; assay type: cell-based; details: P. aeruginosa No.12, nutrient agar, 37°C, 18 hours
# Procedure: as §1
# [21] = test system: Klebsiella pneumoniae type 22 No. 3038; experiment: MIC, standard serial dilution method; assay type: cell-based
# Procedure: as §1
# [22] = test system: Mycobacterium smegmatis ATCC 607; experiment: MIC, standard serial dilution method; assay type: cell-based; details: 37°C, 48 hours
# Procedure: as §1
# [23] = test system: Escherichia coli K-12 LA 290 R 64; experiment: MIC, standard serial dilution method; assay type: cell-based; details: E. coli K-12 LA 290 R 64, nutrient agar, 37°C, 18 hours
# Procedure: as §1
# [24] = test system: Salmonella typhosa T-63; experiment: MIC, standard serial dilution method; assay type: cell-based
# Procedure: as §1
# [25] = test system: Escherichia coli K-12 ML 1410 R 81; experiment: MIC, standard serial dilution method; assay type: cell-based
# Procedure: as §1
# [26] = test system: Klebsiella pneumoniae PCI 602; experiment: MIC, standard serial dilution method; assay type: cell-based; details: K. pneumoniae PCI 602, nutrient agar, 37°C, 18 hours
# Procedure: as §1
# [27] = test system: Pseudomonas aeruginosa TI-13-1; experiment: MIC, standard serial dilution method; assay type: cell-based; details: P. aeruginosa TI-13-1, nutrient agar, 37°C, 18 hours
# Procedure: as §1
# [28] = test system: Bacillus subtilis NRRL B-558; experiment: MIC, standard serial dilution method; assay type: cell-based; details: B. subtilis NRRL B-558, nutrient agar, 37°C, 18 hours
# Procedure: as §1
# [29] = test system: kanamycin-resistant strains; details: in words; cited from earlier work
# [30] = Escherichia coli, 18 h, read-out: Minimal inhibitory concentration
# [31] = Pseudomonas aeruginosa, read-out: Minimal inhibitory concentration
compound,measurement,setting,value
"NC[C@@H]1CC[C@@H](N)[C@@H](O[C@H]2[C@H](O[C@@H]3O[C@H](CO)[C@@H](O)[C@H]3O)[C@@H](O)[C@H](N)C[C@@H]2N)O1 [3', 4'-dideoxyribostamycin]",inactivation by some strains producing the phosphotransferase,[1],can be inactivated by some strains producing the phosphotransferase
"NC[C@@H]1O[C@H](O[C@H]2[C@@H](O)[C@H](O[C@@H]3[C@@H](O)[C@H](N)C[C@H](N)[C@H]3O[C@H]3O[C@H](CO)[C@@H](O)C[C@H]3N)O[C@@H]2CO)[C@H](N)[C@@H](O)[C@@H]1O [LVB, lividomycin B, reference compound]",MIC,"[2]; Escherichia coli, K12ML1629, read-out: Minimal inhibitory concentration",> 100 µg/mL
same,MIC,"[3]; Pseudomonas aeruginosa, GN315, read-out: Minimal inhibitory concentration",50 µg/mL
same,MIC,[4]; [30],6.25 µg/mL
same,MIC,[5]; [30],3.12 µg/mL
same,MIC,"[6]; Escherichia coli, K12W677, 18 h, read-out: Minimal inhibitory concentration",3.12 µg/mL
same,MIC,"[7]; Staphylococcus aureus, FDA209, read-out: Minimal inhibitory concentration",1.56 µg/mL
same,MIC,"[8]; Escherichia coli, K12ML1410, 18 h, read-out: Minimal inhibitory concentration",6.25 µg/mL
same,MIC,[9]; [30],3.12 µg/mL
same,MIC,"[10]; Escherichia coli, K12R5, read-out: Minimal inhibitory concentration",1.56 µg/mL
same,MIC,"[11]; Escherichia coli, K12J5R112, read-out: Minimal inhibitory concentration",> 100 µg/mL
same,MIC,"[12]; Escherichia coli, K12, read-out: Minimal inhibitory concentration",1.56 µg/mL
same,MIC,"[13]; Providencia rettgeri, GN466, 18 h, read-out: Minimal inhibitory concentration",3.12 µg/mL
same,MIC,[14]; [31],100 µg/mL
same,MIC,[15]; [30],3.12 µg/mL
same,MIC,"[16]; Pseudomonas aeruginosa, A3, 18 h, read-out: Minimal inhibitory concentration",6.25 µg/mL
same,MIC,"[17]; Providencia rettgeri, GN311, nutrient agar, read-out: Minimal inhibitory concentration",1.56 µg/mL
same,MIC,"[18]; Micrococcus luteus, PCI1001, nutrient agar, read-out: Minimal inhibitory concentration",1.56 µg/mL
same,MIC,"[19]; Escherichia coli, K12ML1630, read-out: Minimal inhibitory concentration",> 100 µg/mL
same,MIC,[20]; [31],25 µg/mL
same,MIC,"[21]; Klebsiella pneumoniae, TYPE22NO.3038, 18 h, read-out: Minimal inhibitory concentration",6.25 µg/mL
same,MIC,"[22]; Mycolicibacterium smegmatis, ATCC607, nutrient agar, read-out: Minimal inhibitory concentration",0.39 µg/mL
same,MIC,"[23]; Escherichia coli, read-out: Minimal inhibitory concentration",3.12 µg/mL
same,MIC,"[24]; Salmonella enterica, TYPHOSA, 18 h, read-out: Minimal inhibitory concentration",0.78 µg/mL
same,MIC,[25]; [30],> 100 µg/mL
same,MIC,"[26]; Klebsiella pneumoniae, PCI602, read-out: Minimal inhibitory concentration",1.56 µg/mL
same,MIC,"[27]; Pseudomonas aeruginosa, TI131, read-out: Minimal inhibitory concentration",> 100 µg/mL
same,MIC,"[28]; Bacillus subtilis, NRRLB558, read-out: Minimal inhibitory concentration",< 0.2 µg/mL
same,activity against kanamycin-resistant strains,[29],active against the kanamycin-resistant bacteria
"NC[C@@H]1O[C@H](O[C@H]2[C@@H](O)[C@H](O[C@@H]3[C@@H](O)[C@H](N)C[C@H](N)[C@H]3O[C@H]3O[C@H](CN)[C@@H](O)[C@H](O)[C@H]3N)O[C@@H]2CO)[C@H](N)[C@@H](O)[C@@H]1O [NM, neomycin, reference compound]",Minimal inhibitory concentration,[2],100 µg/mL
same,Minimal inhibitory concentration,[3],100 µg/mL
same,Minimal inhibitory concentration,"[4]; E. coli K-12 JR 66/W 677, drug-resistant strain of patient-origin, nutrient agar, 37°C, 18 hours",> 100 µg/mL
same,Minimal inhibitory concentration,"[5]; E. coli K-12 LA 290 R 55, drug-resistant strain of patient-origin, nutrient agar, 37°C, 18 hours",0.78 µg/mL
same,Minimal inhibitory concentration,"[6]; E. coli K-12 W 677, nutrient agar, 37°C, 18 hours",0.78 µg/mL
same,Minimal inhibitory concentration,[7],0.39 µg/mL
same,Minimal inhibitory concentration,"[8]; E. coli K-12 ML 1410, nutrient agar, 37°C, 18 hours",6.25 µg/mL
same,Minimal inhibitory concentration,"[9]; E. coli K-12 LA 290 R 56, nutrient agar, 37°C, 18 hours",0.78 µg/mL
same,Minimal inhibitory concentration,[10],0.78 µg/mL
same,Minimal inhibitory concentration,[11],50 µg/mL
same,Minimal inhibitory concentration,[12],1.56 µg/mL
same,Minimal inhibitory concentration,"[13]; Proteus rettgeri GN 466, nutrient agar, 37°C, 18 hours",3.12 µg/mL
same,Minimal inhibitory concentration,[14],50 µg/mL
same,Minimal inhibitory concentration,"[15]; E. coli NIHJ, nutrient agar, 37°C, 18 hours",1.56 µg/mL
same,Minimal inhibitory concentration,"[16]; P. aeruginosa A 3, nutrient agar, 37°C, 18 hours",25 µg/mL
same,Minimal inhibitory concentration,[17]; nutrient agar,50 µg/mL
same,Minimal inhibitory concentration,[18]; nutrient agar,0.78 µg/mL
same,Minimal inhibitory concentration,[19],> 100 µg/mL
same,Minimal inhibitory concentration,[20],3.12 µg/mL
same,Minimal inhibitory concentration,"[21]; K. pneumoniae type 22 No. 3038, nutrient agar, 37°C, 18 hours",> 100 µg/mL
same,Minimal inhibitory concentration,[22]; nutrient agar,< 0.20 µg/mL
same,Minimal inhibitory concentration,[23],0.39 µg/mL
same,Minimal inhibitory concentration,"[24]; Salmonella typhosa T-63, nutrient agar, 37°C, 18 hours",0.78 µg/mL
same,Minimal inhibitory concentration,"[25]; E. coli K-12 ML 1410 R 81, nutrient agar, 37°C, 18 hours",> 100 µg/mL
same,Minimal inhibitory concentration,[26],0.78 µg/mL
same,Minimal inhibitory concentration,[27],> 100 µg/mL
same,Minimal inhibitory concentration,[28],< 0.20 µg/mL
